From US8173840B2, “Compounds with high therapeutic index” (Signature R&D Holdings, LLC, priority 2003, dated 2012)

Key:
rats = experiment: Clotting time in rats, different date, time intervals and doses (Table 24); format: in vivo, rat
Text: The following additional data were obtained, when the same drugs were compared in rats on a different date with different time intervals and doses: […]

women = settings: daily dose of 60 mg, more than 9000 women; cited from earlier work
Male albino rats = experiment: Blood clotting time in albino rats, 2 hours after dosing; format: in vivo, rat; settings: 20 mg/kg as aspirin, 2 hours (±10 minutes) after dosing
Procedure: Aspirin served as positive control. Male albino rats were exposed to aspirin and to 3 new formulations of amino acid derivatives of aspirin derivatives at one dose level of 20 mg/kg body weight. […]. The doses were expressed as aspirin molar equivalents.
The efficacy in terms of time required for the blood clotting time at the dose level of 20 mg/kg body weight for different formulations of amino acid derivatives of aspirin and aspirin (positive control) are presented below:
The data on the mean clotting time (MCT) of the animals, estimated 2 hours (±10 minutes) after dosing, at the dose level of 20 mg/kg body weight for the formulations of aspirin derivatives, vehicle control and positive control are presented below

human volunteers = experiment: Blood clotting time studies in human volunteers; format: in vivo; settings: human volunteers
Procedure: Several blood clotting time studies were performed on a limited number of human volunteers with Acetylsalicylic Acid-L-Threonine Ester. […] This plot was derived from the data in Table 29. The two Acetylsalicylic Acid-L-Threonine Ester blocks shown above correspond to two separate volunteers who took the test drug over a period of 5 days. The third volunteer took Bayer Aspirin for 5 days. As per FIG. 2, increase in clotting time occurred on the very first day of drug intake, and remained higher than Bayer ASA during the subsequent administrations.

[1] = Plasma aspirin and salicylic acid in human volunteers; format: in vivo
Text: This is shown in FIG. 12 which depicts the concentration of salicyclic Acid in human plasma with respect to four volunteers who took Acetylsalicyclic Acid-L-Threonine Ester and two volunteers who took Aspirin.

[2] = system: albino rats (Wistar strain); settings: rat, in vivo
Procedure: (§1) The study was conducted at one dose level only along with a vehicle control group as per the recommendation of the Sponsor. The test doses are expressed as Aspirin molar equivalents.

albino rats = experiment: Blood clotting time in albino rats, one hour after dosing; format: in vivo, rat; settings: one hour after dosing
Procedure: The data on the mean clotting time (MCT) of the animals of low, intermediate and high dose groups of different formulations, vehicle control and positive control groups estimated one hour after dosing were presented below (Table 19):
Aspirin served as positive control. The study was conducted at three dose levels with the new formulations and positive control along with a vehicle control group.
The doses for the main study were selected based on the dose range finding experiments with acetylsalicylic acid. All the doses were expressed as aspirin molar equivalents. The doses used are presented below.

[3] = system: fasted male albino rats (Wistar strain); experiment: Gastric mucosa irritation of acetylsalicylic acid esters; format: in vivo, rat; settings: single dose by gavage, 3 hours, 5 animals
Procedure: Aspirin served as a reference control. […] All the doses were expressed as aspirin molar equivalents. The doses used as well as the molar equivalents are presented below. The rats were fasted for a period of 18 to 22 hours before dosing. The test item was administered as a single dose by gavage. Three hours after drug administration, the animals were killed humanely by CO2 gas inhalation. The stomach was dissected out and observed for • the quantity of mucous exudate, • degree of hyperemia and thickening of stomach wall, • hemorrhagic spots (focal or diffuse), nature of hemorrhages (petechial or ecchymotic) along with the size and • perforations

[4] = system: albino rats (Wistar strain); experiment: 28-day repeated dose oral toxicity test of Acetylsalicylic Acid-L-Threonine Ester; settings: 100 mg/kg as aspirin, oral gavage daily 28 days;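 also: one dose level only, compared with a vehicle control group, with doses stated as Aspirin molar equivalents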
Procedure: as §1

Compound: CC(=O)Oc1ccccc1C(=O)O [acetylsalicylic acid, reference compound]
- Clotting Time (rats; 10 mg/kg 1 hr): 9.8 min
- Clotting Time (rats; 10 mg/kg 24 hr): 4.4 min
- Clotting Time (rats; 20 mg/kg 2 hr): 5.4 min
- reduced the risk of pre-eclampsia by (women): 13%
- Mean Clotting Time (± S.D.) (Male albino rats): 5.4 ± 1.17 min
- AVERAGE CLOTTING TIME (human volunteers; 81 mg): 4.5 min
- AVERAGE CLOTTING TIME (human volunteers; 325 mg): 5.7 min
- Salicylic Acid in human plasma (profile, words) [1]: Rapid influx and efflux of Salicylic Acid
- Aspirin in blood / plasma ([1]; 325 mg dose, oral): showed Plasma levels of Aspirin
- Alkaline Phosphatase, Significance [P < 0.05] [2]: Increase (Female)
- All Blood Parameters, Significance [P < 0.05] [2]: None
- Blood Urea, Significance [P < 0.05] [2]: Decrease (Female)
- Food intake [2]: normal and comparable to the animals of vehicle control group
- Kidney (Abs) organ weight, Significance[P < 0.05] [2]: Decrease (Male)
- Kidney (Rel) organ weight, Significance[P < 0.05] [2]: Increase (Male)
- SGPT and Cholesterol, Significance [P < 0.05] [2]: Increase (Male)
- Sodium, Significance [P < 0.05] [2]: Increase (Female)
- Spleen (Abs) organ weight, Significance[P < 0.05] [2]: Decrease (Female)
- Spleen (Rel) organ weight, Significance[P < 0.05] [2]: Increase (Female)
- histological sections of organs [2]: mild fatty changes in the cardiac muscle fibers of heart and mild catarrhal changes of gastric mucosa
- Mean Clotting Time (±S.D.), Low Dose (albino rats; 1.0 mg/kg as aspirin): 6.2 ± 1.40 min
- Mean Clotting Time (±S.D.), Intermediate Dose (albino rats; 4.0 mg/kg as aspirin): 8.1 ± 1.97 min
- Mean Clotting Time (±S.D.), High Dose (albino rats; 10.0 mg/kg as aspirin): 9.8 ± 1.32 min
- statistical analysis of mean clotting time vs vehicle control (albino rats): significant improvement at 5% significance level in the efficacy for the intermediate and high dose
- Observation, gastric mucosal irritation ([3]; 100.0 mg/kg as acetylsalicylic acid, listed as aspirin): failed to cause any evidence of gastric mucosal irritation
- Observation, gastric mucosal irritation ([3]; 200.0 mg/kg as acetylsalicylic acid, listed as aspirin (acetylsalicylic acid)): caused irritation of the gastric mucosal in all the fasted male albino rats
- survival [4]: survived through the dosing period of 28 days
